Patent US9187474B2, “Raf inhibitor compounds” (Deciphera Pharmaceuticals, LLC, priority 2012, dated 2015)
Counter-ions that a name gives are not always drawn.

What was measured:
[1] = tested on: A375res cells; test: Proliferation assay in vemurafenib-resistant A375res melanoma cells; conditions: Homo sapiens, 72 h, read-out: absolute IC50 values
Description: (§1) A vemurafenib-resistant cell line is generated by chronic treatment of the human melanoma cell line A375 (ATCC) harboring the B-Raf V600E mutation with increasing concentrations PLX4720.

[2] = tested on: A375res cells
Description: as §1

Row | Compound | IC50 [1] | IC50 shift A375 to A375res [2]
1 | CNc1cc2nc(C)c(-c3cc(NC(=O)NCC(O)C(F)(F)F)c(F)cc3C)cc2cn1 (stereo not drawn) [Example 61, 1-(2-fluoro-4-methyl-5-(2-methyl-7-(methylamino)-1,6-naphthyridin-3-yl)phenyl)-3-(3,3,3-trifluoro-2-hydroxypropyl)urea] | 9 to 504 nM | 0.5-4.9 fold
2 | CNc1cc2nc(C)c(-c3cc(NC(=O)NCCCC(C)(C)F)c(F)cc3C)cc2cn1 [Example 101, 1-(2-fluoro-4-methyl-5-(2-methyl-7-(methylamino)-1,6-naphthyridin-3-yl)phenyl)-3-(4-fluoro-4-methylpentyl)urea hydrochloride] | 9 to 504 nM | 0.5-4.9 fold
3 | CNc1cc2nc(C)c(-c3cc(NC(=O)NC(C)CC(C)(C)C)c(F)cc3C)cc2cn1 (stereo not drawn) [Example 59, 1-(4,4-dimethylpentan-2-yl)-3-(2-fluoro-4-methyl-5-(2-methyl-7-(methylamino)-1,6-naphthyridin-3-yl)phenyl)urea] | 9 to 504 nM | 0.5-4.9 fold
4 | CNc1cc2nc(C)c(-c3cc(NC(=O)NCCC4(OC)CC4)c(F)cc3F)cc2cn1 [Example 28, 1-(2,4-difluoro-5-(2-methyl-7-(methylamino)-1,6-naphthyridin-3-yl)phenyl)-3-(2-(1-methoxycyclopropyl)ethyl)urea] | 9 to 504 nM | 0.5-4.9 fold
5 | CNc1cc2nc(C)c(-c3cc(NC(=O)NCCC4(C)CC4)c(F)cc3C)cc2cn1 [Example 27, 1-(2-fluoro-4-methyl-5-(2-methyl-7-(methylamino)-1,6-naphthyridin-3-yl)phenyl)-3-(2-(1-methylcyclopropyl)ethyl)urea hydrochloride] | 9 to 504 nM | 0.5-4.9 fold
6 | CNc1cc2nc(C)c(-c3cc(NC(=O)NCC(O)C(C)C)c(F)cc3C)cc2cn1 (stereo not drawn) [Example 60, 1-(2-fluoro-4-methyl-5-(2-methyl-7-(methylamino)-1,6-naphthyridin-3-yl)phenyl)-3-(2-hydroxy-3-methylbutyl)urea] | 9 to 504 nM | 0.5-4.9 fold
7 | Cc1cc(F)c(NC(=O)NCCC(C)(C)F)cc1-c1cnc2cc(N)ncc2c1 [Example 81, 1-(5-(7-amino-1,6-naphthyridin-3-yl)-2-fluoro-4-methylphenyl)-3-(3-fluoro-3-methylbutyl)urea] | 9 to 504 nM | 0.5-4.9 fold
8 | COC(C)(C)CCNC(=O)Nc1cc(-c2cc3cnc(N)cc3nc2C)c(C)cc1F [Example 80, 1-(5-(7-amino-2-methyl-1,6-naphthyridin-3-yl)-2-fluoro-4-methylphenyl)-3-(3-methoxy-3-methylbutyl)urea hydrochloride] | 9 to 504 nM | 0.5-4.9 fold
9 | Cc1cc(F)c(NC(=O)NCCC(C)(C)F)cc1-c1cc2cnc(NCCO)cc2nc1C [Example 65, 1-(3-fluoro-3-methylbutyl)-3-(2-fluoro-5-(7-((2-hydroxyethyl)amino)-2-methyl-1,6-naphthyridin-3-yl)-4-methylphenyl)urea] | 9 to 504 nM | 0.5-4.9 fold
10 | CNc1cc2nc(C)c(-c3cc(NC(=O)NCCCC(C)(F)F)c(F)cc3C)cc2cn1 [Example 99, 1-(4,4-difluoropentyl)-3-(2-fluoro-4-methyl-5-(2-methyl-7-(methylamino)-1,6-naphthyridin-3-yl)phenyl)urea hydrochloride] | 9 to 504 nM | 0.5-4.9 fold
11 | CCOC(C)(C)CCNC(=O)Nc1cc(-c2cc3cnc(NC)cc3nc2C)c(C)cc1F [Example 30, 1-(3-ethoxy-3-methylbutyl)-3-(2-fluoro-4-methyl-5-(2-methyl-7-(methylamino)-1,6-naphthyridin-3-yl)phenyl)urea hydrochloride] | 9 to 504 nM | 0.5-4.9 fold
12 | CNc1cc2nc(C)c(-c3cc(NC(=O)NCCCC(F)(F)F)c(F)cc3C)cc2cn1 [Example 91, hydrochloride] | 9 to 504 nM | 0.5-4.9 fold
13 | CNc1cc2nc(C)c(-c3cc(NC(=O)N[C@H]4C[C@@](C)(F)C4)c(F)cc3C)cc2cn1 [Example 100, 1-(3-fluoro-trans(3-methylcyclobutyl))-3-(2-fluoro-4-methyl-5-(2-methyl-7-(methylamino)-1,6-naphthyridin-3-yl)phenyl)urea] | 9 to 504 nM | 0.5-4.9 fold
14 | Cc1cc(F)c(NC(=O)NCCC(C)(C)C#N)cc1-c1cc2cnc(N)cc2nc1C [Example 44, 1-(5-(7-amino-2-methyl-1,6-naphthyridin-3-yl)-2-fluoro-4-methylphenyl)-3-(3-cyano-3-methylbutyl)urea] | 9 to 504 nM | 0.5-4.9 fold

Results, then the compound that gave them:

Row | IC50 [1] | IC50 shift A375 to A375res [2] | Compound
15 | 9 to 504 nM | 0.5-4.9 fold | CNc1cc2ncc(-c3cc(NC(=O)NCCC(C)(C)OC)c(F)cc3C)cc2cn1 [Example 32, 1-(2-fluoro-4-methyl-5-(7-(methylamino)-1,6-naphthyridin-3-yl)phenyl)-3-(3-methoxy-3-methylbutyl)urea]
16 | 9 to 504 nM | 0.5-4.9 fold | CNc1cc2nc(C)c(-c3cc(NC(=O)N[C@H](C)CC(C)(C)C)c(F)cc3C)cc2cn1 [Example 72, (R)-1-(4,4-dimethylpentan-2-yl)-3-(2-fluoro-4-methyl-5-(2-methyl-7-(methylamino)-1,6-naphthyridin-3-yl)phenyl)urea]
17 | 9 to 504 nM | 0.5-4.9 fold | CNc1cc2nc(C)c(-c3cc(NC(=O)NCCC4(OC)CC4)c(F)cc3C)cc2cn1 [Example 31, 1-(2-fluoro-4-methyl-5-(2-methyl-7-(methylamino)-1,6-naphthyridin-3-yl)phenyl)-3-(2-(1-methoxycyclopropyl)ethyl)urea hydrochloride]
18 | 9 to 504 nM | 0.5-4.9 fold | CNc1cc2nc(C)c(-c3cc(NC(=O)NCCCC(C)(C)OC)c(F)cc3C)cc2cn1 [Example 33, 1-(2-fluoro-4-methyl-5-(2-methyl-7-(methylamino)-1,6-naphthyridin-3-yl)phenyl)-3-(4-methoxy-4-methylpentyl)urea hydrochloride]
19 | 9 to 504 nM | 0.5-4.9 fold | CNc1cc2nc(C)c(-c3cc(NC(=O)N[C@H]4CC[C@@](C)(C#N)CC4)c(F)cc3C)cc2cn1 [Example 26, 1-(cis-4-cyano-4-methylcyclohexyl)-3-(2-fluoro-4-methyl-5-(2-methyl-7-(methylamino)-1,6-naphthyridin-3-yl)phenyl)urea]
20 | 9 to 504 nM | 0.5-4.9 fold | CNc1cc2nc(C)c(-c3cc(NC(=O)N[C@H]4CC[C@](C)(C#N)CC4)c(F)cc3C)cc2cn1 [Example 25, 1-(trans-4-cyano-4-methylcyclohexyl)-3-(2-fluoro-4-methyl-5-(2-methyl-7-(methylamino)-1,6-naphthyridin-3-yl)phenyl)urea]
21 | 9 to 504 nM | 0.5-4.9 fold | CNc1cc2nc(C)c(-c3cc(NC(=O)NCCC4CCC4)c(F)cc3C)cc2cn1 [Example 97, 1-(2-cyclobutylethyl)-3-(2-fluoro-4-methyl-5-(2-methyl-7-(methylamino)-1,6-naphthyridin-3-yl)phenyl)urea hydrochloride]
